# pEC50: −log10 of the molar value.
# Assays:
# [1] = tested on: prostaglandin E2 in pouch fluid (carageenan-induced inflammation); experiment: In vivo anti inflammatory assay, rat carageenan air pouch
# Protocol: (§1) Selected compounds were tested in three in vitro and two in vivo assays. The in vitro assays consisted of the following: measuring the effect of the compounds to inhibit the increase of prostaglandins following treatment of human fetal fibroblasts cells with interleukin-1 followed by arachidonic acid, measuring the effect of the compounds on cyclic GMP in the human fetal fibroblasts, and measuring the smooth muscle relaxant activity in rat aortic rings. The in vivo assay consists of measuring the antiinflammatory properties of the compounds in the carageenan treated rat air pouch model and the relaxant activity on acetylcholine-induced bronchoconstriction in guinea-pigs.
# D. In vivo anti inflammatory assay: EXAMPLE 1 was tested for antiinflammatory activity in vivo in the rat carageenan air pouch assay. Rats are injected subcutaneously with a volume of air over several days to form a pouch. […] The inflammation is measured by assaying the pouch fluid for prostaglandin E2 by ELISA. Examples 1 at 3 mg/kg dose blocked the increase in prostaglandin E2 by 60%.
# [2] = tested on: prostaglandin E2 (PGE2) synthesis in human fetal fibroblasts cells; experiment: In vitro inhibition of prostaglandin E2 (PGE2) synthesis assay, human fetal fibroblasts treated with IL-1 then arachidonic acid, ELISA; format: cell-based; conditions: IL-1 16 h then arachidonic acid; compound 10 uM added with IL-1; basal 3.5, IL-1, AA alone 40.0
# Protocol: as §1
# A. In vitro inhibiton of prostaglandin E2 (PGE2) synthesis assay: Human fetal fibroblasts cells were treated with IL-1 for 16 hours and then with 10 mM arachidonic acid (AA). The prostaglandin E2 levels were measured by an ELISA. Compounds were given at the time of addition of IL-1. This assay provides an in vitro assessment of the compound to block the induction of the proinflammatory agent prostaglandin E2 (PGE2): […]
# [3] = tested on: rat aortic ring smooth muscle; experiment: In vitro smooth relaxant activity assay, rat aortic rings precontracted with phenylephrine; format: cell-based; conditions: for pEC50: Rattus norvegicus, in the presence of Cys and L-NAME, precontracted with phenylephrine (0.3 μM), read-out: Relaxation, EC50; for smooth muscle relaxant activity (in words): rat aortic rings, Cys and L-NAME, FIGS. 1 and 2
# Protocol: as §1
# C. In vitro smooth relaxant activity assay: Selected compounds were examined for the ability to relax smooth muscle. The rat aortic ring assay was utilized as a bioassay to measure the relaxant activity. The rings were precontracted with phenylephrine (0.3 μM) and subsequently compounds were added to the tissue bath in the presence of cysteine (Cys) and N^G -L-nitro-arginine methyl ester (L-NAME): […]
# [4] = tested on: cyclic GMP in human fetal fibroblasts; experiment: In vitro stimulation of cGMP production assay, human fetal fibroblasts with isobutylmethylxanthine, radioimmunoassay (NO reporter cell assay); format: cell-based; conditions: 120 min, isobutylmethylxanthine present; basal 1.8
# Protocol: as §1
# B. In vitro stimulation of cGMP production assay: Human fetal fibroblasts in the presence of isobutylmethylxanthine, an inhibitor of phosphodiesterase, were treated with compounds for 120 min and the intra-cellular cyclic GMP levels are measured by a radioimmunoassay. The cell line is utilized as a reporter cell assay to monitor the production of NO.
smiles,measurement,setting,value
CC(=O)OCC(=O)[C@@]1(O)CC[C@H]2[C@@H]3CCC4=CC(=O)C=C[C@]4(C)[C@H]3[C@@H](ON=O)C[C@@]21C [Example 1],ability to reduce inflammation in vivo (in words),[1],possess the ability to reduce inflammation in vivo
same,blocked the increase in prostaglandin E2,[1]; 3 mg/kg,60%
same,PGE2,[2],9.2 ng
same,pEC50,[3],7.70
same,cyclic GMP,[4],4.8 fm/cell well
C[C@]12C=CC(=O)C=C1CC[C@@H]1[C@@H]2[C@@H](ON=O)C[C@@]2(C)[C@H]1CC[C@]2(O)C(=O)CO [Example 2],pEC50,[3],7.52
CCC(=O)OCC(=O)[C@@]1(OC(=O)CC)[C@@H](C)C[C@H]2[C@@H]3CCC4=CC(=O)C=C[C@]4(C)[C@@]3(Cl)[C@@H](ON=O)C[C@@]21C [Example 11],pEC50,[3],7.40
CCC(=O)OCC(=O)[C@@]1(OC(=O)CC)[C@@H](C)C[C@H]2[C@@H]3CCC4=CC(=O)C=C[C@]4(C)[C@@]3(Cl)[C@@H](O[N+](=O)[O-])C[C@@]21C [beclomethasone dipropionate-11-nitrate ester],pEC50,[3],5.70
CCC(=O)OCC(=O)[C@@]1(OC(=O)CC)[C@@H](C)C[C@H]2[C@@H]3CCC4=CC(=O)C=C[C@]4(C)[C@@]3(Cl)[C@@H](O)C[C@@]21C [beclomethasone dipropionate],pEC50,[3],< 4.00
same,smooth muscle relaxant activity (in words),[3],did not show any effect
CC(=O)OCC(=O)[C@@]1(O)CC[C@H]2[C@@H]3CCC4=CC(=O)C=C[C@]4(C)[C@H]3[C@@H](O[N+](=O)[O-])C[C@@]21C [prednisolone-11-nitrate ester-21-acetate],pEC50,[3],4.60
C[C@]12C=CC(=O)C=C1CC[C@@H]1[C@@H]2[C@@H](O)C[C@@]2(C)[C@H]1CC[C@]2(O)C(=O)CO [prednisolone],PGE2,[2],9.9 ng
same,smooth muscle relaxant activity (in words),[3],did not show any effect
same,cyclic GMP,[4],1.6 fm/cell well

# Reference: patent US5707984A, “Steroid nitrite/nitrate ester derivatives useful as anti-inflammatory drugs” (G. D. Searle & Co., priority 1995, dated 1998)
